Laboratory results from US9822074B2, “Dihydropyridinone MGAT2 inhibitors” (BRISTOL-MYERS SQUIBB COMPANY, priority 2013, dated 2017).

Biological target: human MGAT2 (Homo sapiens (Human), UniProt Q3SYC2)
Assay: MGAT LCMS Assay (MGAT2 in vitro enzyme assay)
Type: biochemical
Settings: Human MGAT-2 membranes expressed in Sf9 cells; 100 μM 2-oleoylglycerol, 15 μM oleoyl-Coenzyme A; read-out: h-MGAT LCMS IC50
Procedure: The MGAT enzyme reactions were performed in Corning FALCON® 96-well Polypropylene plates, in a total volume of 60 μL of 50 mM Potassium Phosphate buffer pH 7.4, containing a final concentration of 100 μM 2-oleoylglycerol, 15 μM oleoyl-Coenzyme A and 0.0013 μg/μL Human or Mouse MGAT-2 or 0.0026 μg/μL Rat recombinant MGAT-2 membranes expressed in Sf9 cells. Assay plates were run through a fully automated robotics system and shaken for 5 seconds every minute for a total 10 minutes. The reactions were then quenched with 120 μL of ice cold methanol containing 1 μg/mL 1,2-distearoyl-rac-glycerol as the internal standard. Plates were shaken for 2 minutes and spun down to remove protein precipitation. After the spin, samples were transferred to LC/MS compatible PCR plates. For LC/MS analysis, a ThermoFisher Surveyor pump, utilizing a Waters Symmetry C8, 50×2.1 mm column, was used for the chromatography of enzyme products. The buffer system consists of 0.1% formic acid in water with a mobile phase consisting 0.1% formic acid in methanol. The shallow gradient is 90-100% mobile phase in 0.2 min with a total run time of 2.3 min. The first 0.5 minutes of each injection was diverted to waste to eliminate the presence of Phosphate buffer in the enzymatic reaction. The column was run at 0.6 mL/min and a temperature of 65° C. […]

Chain of human MGAT2 (Q3SYC2 whole entry): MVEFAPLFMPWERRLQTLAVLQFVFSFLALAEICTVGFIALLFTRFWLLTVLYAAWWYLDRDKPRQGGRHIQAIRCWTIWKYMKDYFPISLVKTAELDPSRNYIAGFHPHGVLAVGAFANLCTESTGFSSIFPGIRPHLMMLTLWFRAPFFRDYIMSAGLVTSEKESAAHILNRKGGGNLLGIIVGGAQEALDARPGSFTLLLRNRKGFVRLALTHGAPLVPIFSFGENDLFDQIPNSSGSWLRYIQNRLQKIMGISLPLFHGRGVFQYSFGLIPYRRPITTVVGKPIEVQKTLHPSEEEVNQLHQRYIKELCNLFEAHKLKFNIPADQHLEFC

Compound	IC50 [nM]
CC(C)n1ccc(C2=C(C(=O)NS(=O)(=O)C3CC3)C(=O)N[C@@](c3ccc(CCCCC(F)(F)F)cc3F)(C(F)(F)F)C2)n1 [Example 49, (S)-N-(cyclopropylsulfonyl)-6-(2-fluoro-4-(5,5,5-trifluoropentyl)phenyl)-4-(1-isopropyl-1H-pyrazol-3-yl)-2-oxo-6-(trifluoromethyl)-1,2,5,6-tetrahydropyridine-3-carboxamide]	35
O=C1N[C@@](c2ccc(CCCCC(F)(F)F)cc2F)(C(F)(F)F)CC(c2ccn(C3CCC3)n2)=C1C(=O)NS(=O)(=O)C1CC1 [Example 50, (S)-4-(1-cyclobutyl-1H-pyrazol-3-yl)-N-(cyclopropylsulfonyl)-6-(2-fluoro-4-(5,5,5-trifluoropentyl)phenyl)-2-oxo-6-(trifluoromethyl)-1,2,5,6-tetrahydropyridine-3-carboxamide]	16
